Where a SMILES comes first, the peptide text is derived from it. [ ]: non-standard residue; d: D form. Ahx = NCCCCCC(=O)O
Tests used:
[1] = molecular target: T1, Neuropeptide Y receptor type 2 (Homo sapiens, UniProt P49146); test: Tested against neuropeptide Y2 receptors using SK-N-BE2 human neuroblastoma cells
T1 sequence (P49146 whole entry): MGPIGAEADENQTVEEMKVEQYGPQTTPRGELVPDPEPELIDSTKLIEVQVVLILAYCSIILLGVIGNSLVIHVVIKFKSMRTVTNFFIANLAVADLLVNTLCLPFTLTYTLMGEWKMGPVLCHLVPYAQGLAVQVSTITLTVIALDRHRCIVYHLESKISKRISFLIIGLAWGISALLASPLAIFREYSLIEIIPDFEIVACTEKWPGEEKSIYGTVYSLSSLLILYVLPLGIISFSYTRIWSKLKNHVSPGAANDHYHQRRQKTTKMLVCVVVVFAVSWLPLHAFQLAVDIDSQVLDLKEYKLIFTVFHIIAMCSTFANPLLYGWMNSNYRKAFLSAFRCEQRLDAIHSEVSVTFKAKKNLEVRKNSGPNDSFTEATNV

[2] = molecular target: T2, Neuropeptide Y receptor type 1 (Homo sapiens, UniProt P25929); test: Tested against neuropeptide Y1 receptors using SK-N-MC human neuroblastoma cells; format: cell-based
T2 sequence (P25929 whole entry): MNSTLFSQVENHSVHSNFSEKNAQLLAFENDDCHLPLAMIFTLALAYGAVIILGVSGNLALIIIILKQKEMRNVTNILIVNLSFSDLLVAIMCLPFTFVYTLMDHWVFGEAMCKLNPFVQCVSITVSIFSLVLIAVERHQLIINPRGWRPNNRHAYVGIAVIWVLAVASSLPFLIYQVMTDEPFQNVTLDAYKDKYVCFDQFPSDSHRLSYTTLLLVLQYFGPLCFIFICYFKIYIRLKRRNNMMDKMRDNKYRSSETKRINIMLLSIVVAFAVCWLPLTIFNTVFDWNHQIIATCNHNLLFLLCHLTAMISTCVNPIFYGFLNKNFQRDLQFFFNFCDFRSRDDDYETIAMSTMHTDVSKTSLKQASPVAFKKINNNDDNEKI

CC[C@H](C)[C@H](NC(=O)[C@H](CC(C)C)NC(=O)[C@H](CC(N)=O)NC(=O)[C@@H](NC(=O)[C@H]1CNC(=O)CC[C@H](NC(=O)[C@@H](N)Cc2ccc(O)cc2)C(=O)N[C@@H](CO)C(=O)N[C@@H](CCCCN)C(=O)NCCCCCC(=O)N[C@@H](CCCN=C(N)N)C(=O)N[C@@H](Cc2c[nH]cn2)C(=O)N1)[C@@H](C)CC)C(=O)N[C@H](C(=O)N[C@@H](CCCN=C(N)N)C(=O)N[C@@H](CCC(N)=O)C(=O)N[C@@H](CCCN=C(N)N)C(=O)N[C@@H](Cc1ccc(O)cc1)C(N)=O)[C@@H](C)O
Ki [1]: 2.3 nM | Ki ([2]; sk-n-mc): 220 nM

CC[C@H](C)[C@H](NC(=O)[C@H](CC(C)C)NC(=O)[C@H](CC(N)=O)NC(=O)[C@@H](NC(=O)[C@H]1CNC(=O)CC[C@H](NC(=O)[C@@H](N)Cc2ccc(O)cc2)C(=O)N[C@@H](CO)C(=O)N[C@@H](CCCCN)C(=O)N2CCC[C@H]2C(=O)N[C@H](C)C(=O)N[C@@H](CCCN=C(N)N)C(=O)N[C@@H](Cc2c[nH]cn2)C(=O)N1)[C@@H](C)CC)C(=O)N[C@H](C(=O)N[C@@H](CCCN=C(N)N)C(=O)N[C@@H](CCC(N)=O)C(=O)N[C@@H](CCCN=C(N)N)C(=O)N[C@@H](Cc1ccc(O)cc1)C(N)=O)[C@@H](C)O
Ki [1]: 0.3 nM | Ki ([2]; sk-n-mc): > 1000 nM

CC[C@H](C)[C@H](NC(=O)[C@H](CC(C)C)NC(=O)[C@H](CC(N)=O)NC(=O)[C@@H](NC(=O)[C@H]1CNC(=O)C[C@H](NC(=O)[C@@H](N)Cc2ccc(O)cc2)C(=O)N[C@@H](CO)C(=O)N[C@@H](CCCCN)C(=O)N2CCC[C@H]2C(=O)N[C@H](C)C(=O)N[C@@H](CCCNC(=N)N)C(=O)N[C@@H](Cc2c[nH]cn2)C(=O)N1)[C@@H](C)CC)C(=O)N[C@H](C(=O)N[C@@H](CCCNC(=N)N)C(=O)N[C@@H](CCC(N)=O)C(=O)N[C@@H](CCCNC(=N)N)C(=O)N[C@@H](Cc1ccc(O)cc1)C(=O)O)[C@@H](C)O
Ki [1]: 1.5 nM | Ki ([2]; sk-n-mc): > 1000 nM

CC[C@H](C)[C@H](NC(=O)[C@H](CC(C)C)NC(=O)[C@H](CC(N)=O)NC(=O)[C@@H](NC(=O)[C@H]1CNC(=O)CC[C@H](NC(=O)[C@@H](N)Cc2ccc(O)cc2)C(=O)N[C@@H](CO)C(=O)N[C@@H](CCCCN)C(=O)N2CCC[C@H]2C(=O)NCC(=O)N[C@@H](CCCN=C(N)N)C(=O)N[C@@H](Cc2c[nH]cn2)C(=O)N1)[C@@H](C)CC)C(=O)N[C@H](C(=O)N[C@@H](CCCN=C(N)N)C(=O)N[C@@H](CCC(N)=O)C(=O)N[C@@H](CCCN=C(N)N)C(=O)N[C@@H](Cc1ccc(O)cc1)C(N)=O)[C@@H](C)O
Ki [1]: 0.3 nM | Ki ([2]; sk-n-mc): 130 nM

CC[C@H](C)[C@H](NC(=O)[C@H](CC(C)C)NC(=O)[C@H](CC(N)=O)NC(=O)[C@@H](NC(=O)[C@H]1CNC(=O)CC[C@@H](NC(=O)[C@@H](N)Cc2ccc(O)cc2)C(=O)N[C@@H](CO)C(=O)N[C@@H](CCCCN)C(=O)N2CCC[C@H]2C(=O)N[C@H](C)C(=O)N[C@@H](CCCN=C(N)N)C(=O)N[C@@H](Cc2c[nH]cn2)C(=O)N1)[C@@H](C)CC)C(=O)N[C@H](C(=O)N[C@@H](CCCN=C(N)N)C(=O)N[C@@H](CCC(N)=O)C(=O)N[C@@H](CCCN=C(N)N)C(=O)N[C@@H](Cc1ccc(O)cc1)C(N)=O)[C@@H](C)O
Ki [1]: 1.1 nM | Ki ([2]; sk-n-mc): 230 nM

CC[C@H](C)[C@@H]1NC(=O)[C@H](CC(C)C)NC(=O)[C@H](CC(N)=O)NC(=O)[C@@H](NC(=O)[C@H]2CNC(=O)CC[C@H](NC(=O)[C@@H](N)Cc3ccc(O)cc3)C(=O)N[C@@H](CO)C(=O)N[C@@H](CCCCN)C(=O)N3CCC[C@H]3C(=O)N[C@H](C)C(=O)N[C@@H](CCCN=C(N)N)C(=O)N[C@@H](Cc3c[nH]cn3)C(=O)N2)CCCCNC(=O)CC[C@@H](C(=O)N[C@@H](CCCN=C(N)N)C(=O)N[C@@H](CCC(N)=O)C(=O)N[C@@H](CCCN=C(N)N)C(=O)N[C@@H](Cc2ccc(O)cc2)C(N)=O)NC1=O
Ki [1]: 0.3 nM | Ki ([2]; sk-n-mc): > 1000 nM

CC[C@H](C)[C@H](NC(=O)[C@H](Cc1ccc(O)cc1)NC(=O)[C@H](Cc1c[nH]cn1)NC(=O)[C@H](CCCN=C(N)N)NC(=O)[C@H](CC(C)C)NC(=O)[C@H](C)NC(=O)[C@H](CO)NC(=O)[C@H](Cc1ccc(O)cc1)NC(=O)[C@H](Cc1ccc(O)cc1)NC(=O)[C@H](CCCN=C(N)N)NC(=O)[C@H](C)NC(=O)[C@H](CC(C)C)NC(=O)[C@H](CC(=O)O)NC(=O)[C@H](CCC(=O)O)NC(=O)[C@H](C)NC(=O)[C@@H]1CCCN1)C(=O)N[C@@H](CC(N)=O)C(=O)N[C@@H](CC(C)C)C(=O)N[C@H](C(=O)N[C@H](C(=O)N[C@@H](CCCN=C(N)N)C(=O)N[C@@H](CCC(N)=O)C(=O)N[C@@H](CCCN=C(N)N)C(=O)N[C@@H](Cc1ccc(O)cc1)C(=O)O)[C@@H](C)O)[C@@H](C)CC
Ki [1]: 0.8 nM

CC[C@H](C)[C@H](NC(=O)[C@H](Cc1ccc(O)cc1)NC(=O)[C@H](Cc1cnc[nH]1)NC(=O)[C@H](CCCNC(=N)N)NC(=O)[C@@H](C)NC(=O)[C@@H]1CCCN1C(=O)[C@H](CCCCN)NC(=O)[C@H](CO)NC(=O)[C@@H]1CCCN1C(=O)[C@@H](N)Cc1ccc(O)cc1)C(=O)N[C@@H](CC(N)=O)C(=O)N[C@@H](CC(C)C)C(=O)N[C@H](C(=O)N[C@H](C(=O)N[C@@H](CCCNC(=N)N)C(=O)N[C@@H](CCC(N)=O)C(=O)N[C@@H](CCCNC(=N)N)C(=O)N[C@@H](Cc1ccc(O)cc1)C(=O)O)[C@@H](C)O)[C@@H](C)CC
Ki [1]: 0.9 nM | Ki [2]: 290 nM

CC[C@H](C)[C@H](NC(=O)[C@H](CC(C)C)NC(=O)[C@H](CC(N)=O)NC(=O)[C@@H](NC(=O)[C@H]1CCCCNC(=O)C[C@H](NC(=O)[C@@H](N)Cc2ccc(O)cc2)C(=O)N[C@@H](CO)C(=O)N[C@@H](CCCCN)C(=O)N2CCC[C@H]2C(=O)N[C@H](C)C(=O)N[C@@H](CCCNC(=N)N)C(=O)N[C@@H](Cc2cnc[nH]2)C(=O)N1)[C@@H](C)CC)C(=O)N[C@H](C(=O)N[C@@H](CCCNC(=N)N)C(=O)N[C@@H](CCC(N)=O)C(=O)N[C@@H](CCCNC(=N)N)C(=O)N[C@@H](Cc1ccc(O)cc1)C(=O)O)[C@@H](C)O
Ki [1]: 0.5 nM | Ki [2]: > 1000 nM

CC[C@H](C)[C@@H]1NC(=O)[C@H](CC(C)C)NC(=O)[C@H](CC(N)=O)NC(=O)[C@@H](NC(=O)[C@H](Cc2ccc(O)cc2)NC(=O)[C@H](Cc2cnc[nH]2)NC(=O)[C@H](CCCNC(=N)N)NC(=O)[C@@H](C)NC(=O)[C@@H]2CCCN2C(=O)[C@H](CCCCN)NC(=O)[C@H](CO)NC(=O)[C@@H]2CCCN2C(=O)[C@@H](N)Cc2ccc(O)cc2)CCCCNC(=O)CC[C@@H](C(=O)N[C@@H](CCCNC(=N)N)C(=O)N[C@@H](CCC(N)=O)C(=O)N[C@@H](CCCNC(=N)N)C(=O)N[C@@H](Cc2ccc(O)cc2)C(=O)O)NC1=O
Ki [1]: 0.5 nM | Ki [2]: > 1000 nM

CC[C@H](C)[C@H](NC(=O)[C@H](Cc1ccc(O)cc1)NC(=O)[C@H](Cc1cnc[nH]1)NC(=O)[C@H](CCCNC(=N)N)NC(=O)CCCCCNC(=O)[C@H](CCCCN)NC(=O)[C@H](CO)NC(=O)[C@@H]1CCCN1C(=O)[C@@H](N)Cc1ccc(O)cc1)C(=O)N[C@@H](CC(N)=O)C(=O)N[C@@H](CC(C)C)C(=O)N[C@H](C(=O)N[C@H](C(=O)N[C@@H](CCCNC(=N)N)C(=O)N[C@@H](CCC(N)=O)C(=O)N[C@@H](CCCNC(=N)N)C(=O)N[C@@H](Cc1ccc(O)cc1)C(=O)O)[C@@H](C)O)[C@@H](C)CC (H-YPSK[Ahx]RHYINLITRQRY-OH)
Ki [1]: 1 nM | Ki [2]: 261 nM

H-YPSKPGRHYINLITRQRY-OH
Ki [1]: 3.1 nM

Source: ChEMBL document CHEMBL1126588 (J Med Chem, 1993)
